Reference: ChEMBL document CHEMBL5465560, “Selectivity Literature for EUbOPEN Chemogenomic Library” (2024)

Tests used:
[1] = target: T1, Dual specificity mitogen-activated protein kinase kinase 4 (Homo sapiens) (UniProt P45985); test: Selectivity interaction (KinomeScan (DiscoverX)) EUB0000695a MAP2K4; details: at 100 nM
T1 sequence (whole entry): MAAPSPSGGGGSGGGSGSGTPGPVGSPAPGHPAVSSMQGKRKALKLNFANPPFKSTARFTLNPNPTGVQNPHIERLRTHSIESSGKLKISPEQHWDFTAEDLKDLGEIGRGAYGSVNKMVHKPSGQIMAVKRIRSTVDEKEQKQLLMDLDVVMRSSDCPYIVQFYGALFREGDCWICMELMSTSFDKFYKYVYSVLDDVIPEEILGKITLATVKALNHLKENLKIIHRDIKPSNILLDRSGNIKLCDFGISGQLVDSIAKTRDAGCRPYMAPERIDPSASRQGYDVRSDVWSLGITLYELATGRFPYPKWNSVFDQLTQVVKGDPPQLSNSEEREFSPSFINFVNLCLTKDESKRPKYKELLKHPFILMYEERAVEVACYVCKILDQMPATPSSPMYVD

[2] = target: T2, Receptor-interacting serine/threonine-protein kinase 4 (Homo sapiens) (UniProt P57078); test: Selectivity interaction (KinomeScan (DiscoverX)) EUB0001079a RIPK4; details: at 1 µM
T2 sequence (whole entry): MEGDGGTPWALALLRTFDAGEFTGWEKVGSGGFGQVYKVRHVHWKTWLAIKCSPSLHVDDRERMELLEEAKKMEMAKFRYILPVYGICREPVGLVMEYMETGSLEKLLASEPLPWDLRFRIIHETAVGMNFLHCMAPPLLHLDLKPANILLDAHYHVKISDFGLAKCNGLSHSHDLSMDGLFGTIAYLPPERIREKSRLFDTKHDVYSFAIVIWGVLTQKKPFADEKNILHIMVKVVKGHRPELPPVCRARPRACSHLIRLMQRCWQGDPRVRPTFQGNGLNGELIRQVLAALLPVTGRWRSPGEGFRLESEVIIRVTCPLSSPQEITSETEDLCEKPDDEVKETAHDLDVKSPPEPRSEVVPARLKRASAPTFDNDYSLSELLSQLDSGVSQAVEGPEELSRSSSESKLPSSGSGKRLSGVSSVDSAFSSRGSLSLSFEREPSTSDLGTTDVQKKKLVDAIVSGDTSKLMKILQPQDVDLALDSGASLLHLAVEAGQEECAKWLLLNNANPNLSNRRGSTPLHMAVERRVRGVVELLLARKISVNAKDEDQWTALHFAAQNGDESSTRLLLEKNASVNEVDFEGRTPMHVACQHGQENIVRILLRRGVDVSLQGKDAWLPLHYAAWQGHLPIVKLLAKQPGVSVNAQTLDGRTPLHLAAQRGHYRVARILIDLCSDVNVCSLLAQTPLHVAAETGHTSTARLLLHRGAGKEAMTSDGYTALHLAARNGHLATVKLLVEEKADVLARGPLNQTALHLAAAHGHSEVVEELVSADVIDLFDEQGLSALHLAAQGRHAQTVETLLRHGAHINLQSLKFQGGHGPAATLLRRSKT

[3] = target: Tyrosine-protein kinase HCK (Homo sapiens) (UniProt P08631); test: Selectivity interaction (Kinase panel (Z-LYTE Assay)) EUB0001632a HCK; details: at 10 µM
Sequence of Tyrosine-protein kinase HCK (Homo sapiens) (P08631 2-526 limits assumed): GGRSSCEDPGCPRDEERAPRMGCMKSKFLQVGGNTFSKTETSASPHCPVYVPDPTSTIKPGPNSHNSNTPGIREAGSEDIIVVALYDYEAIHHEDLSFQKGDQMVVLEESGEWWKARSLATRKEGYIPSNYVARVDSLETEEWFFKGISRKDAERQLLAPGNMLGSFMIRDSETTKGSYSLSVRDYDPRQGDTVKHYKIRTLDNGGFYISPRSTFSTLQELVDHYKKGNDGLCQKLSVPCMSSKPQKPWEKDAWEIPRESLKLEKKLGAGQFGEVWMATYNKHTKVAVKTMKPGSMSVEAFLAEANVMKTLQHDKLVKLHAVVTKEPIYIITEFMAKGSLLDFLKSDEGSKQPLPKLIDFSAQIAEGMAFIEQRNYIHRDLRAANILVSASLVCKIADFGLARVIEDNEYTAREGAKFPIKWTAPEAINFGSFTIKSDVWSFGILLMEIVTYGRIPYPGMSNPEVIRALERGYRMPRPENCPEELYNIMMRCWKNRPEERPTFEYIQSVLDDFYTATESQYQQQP

[4] = target: Adenosine receptor A1 (Homo sapiens) (UniProt P30542); test: Selectivity interaction (Eurofins CEREP Diversity Profile (receptors and ion channels)) EUB0000279b ADORA1; details: at 10 µM
[5] = tested on: ALK tyrosine kinase receptor (Homo sapiens), Q9UM73 [C1156Y]; test: (§1) Selectivity interaction (KinomeScan (DiscoverX)) EUB0001049a ALK; details: at 1 µM
Sequence of ALK tyrosine kinase receptor (Homo sapiens), Q9UM73 [C1156Y] (Q9UM73 whole entry C1156Y, looked up): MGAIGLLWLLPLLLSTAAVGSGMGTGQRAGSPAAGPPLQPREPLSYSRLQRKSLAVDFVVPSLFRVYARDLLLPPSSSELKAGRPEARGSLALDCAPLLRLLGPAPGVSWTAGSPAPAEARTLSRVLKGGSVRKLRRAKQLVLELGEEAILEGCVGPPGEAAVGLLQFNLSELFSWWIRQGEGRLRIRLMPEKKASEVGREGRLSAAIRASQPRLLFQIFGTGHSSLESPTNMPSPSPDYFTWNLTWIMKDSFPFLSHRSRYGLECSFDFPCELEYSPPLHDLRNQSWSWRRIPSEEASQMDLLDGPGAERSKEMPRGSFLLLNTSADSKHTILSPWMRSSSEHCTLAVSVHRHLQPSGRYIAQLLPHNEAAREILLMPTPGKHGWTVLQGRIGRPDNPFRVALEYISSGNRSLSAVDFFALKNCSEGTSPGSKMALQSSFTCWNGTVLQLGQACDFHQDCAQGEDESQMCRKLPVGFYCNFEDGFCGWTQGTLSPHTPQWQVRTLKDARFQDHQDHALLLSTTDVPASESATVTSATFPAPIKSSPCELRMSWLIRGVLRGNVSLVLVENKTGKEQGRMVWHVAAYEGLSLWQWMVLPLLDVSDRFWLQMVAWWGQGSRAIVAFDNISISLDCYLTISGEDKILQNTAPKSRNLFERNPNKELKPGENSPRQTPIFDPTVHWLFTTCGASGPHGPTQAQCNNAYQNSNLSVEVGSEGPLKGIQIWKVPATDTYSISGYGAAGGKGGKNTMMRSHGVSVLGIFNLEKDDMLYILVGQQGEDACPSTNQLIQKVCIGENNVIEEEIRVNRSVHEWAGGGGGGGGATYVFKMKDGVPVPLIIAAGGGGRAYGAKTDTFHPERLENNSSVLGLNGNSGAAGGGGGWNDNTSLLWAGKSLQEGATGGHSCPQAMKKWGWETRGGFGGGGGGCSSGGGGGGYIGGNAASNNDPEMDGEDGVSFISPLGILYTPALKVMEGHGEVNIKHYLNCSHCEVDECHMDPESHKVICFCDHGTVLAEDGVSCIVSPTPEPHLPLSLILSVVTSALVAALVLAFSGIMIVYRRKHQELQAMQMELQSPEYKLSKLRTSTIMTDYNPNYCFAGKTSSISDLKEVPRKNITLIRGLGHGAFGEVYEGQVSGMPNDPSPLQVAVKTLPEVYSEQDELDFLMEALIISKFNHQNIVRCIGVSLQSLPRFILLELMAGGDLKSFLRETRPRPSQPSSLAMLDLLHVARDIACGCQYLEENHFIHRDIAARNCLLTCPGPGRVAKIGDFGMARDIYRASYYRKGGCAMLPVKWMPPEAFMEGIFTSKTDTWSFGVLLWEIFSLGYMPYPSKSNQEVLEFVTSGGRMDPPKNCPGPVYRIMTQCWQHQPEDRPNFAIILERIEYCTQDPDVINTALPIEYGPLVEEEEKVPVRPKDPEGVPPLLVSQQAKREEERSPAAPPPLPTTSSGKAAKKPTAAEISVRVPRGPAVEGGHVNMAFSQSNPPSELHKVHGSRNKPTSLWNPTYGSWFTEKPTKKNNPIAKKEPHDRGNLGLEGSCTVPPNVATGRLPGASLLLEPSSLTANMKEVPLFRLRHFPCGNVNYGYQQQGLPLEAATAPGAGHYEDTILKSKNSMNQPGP

[6] = tested on: ALK tyrosine kinase receptor (Homo sapiens), Q9UM73 [L1196M]; test: as §1; details: at 1 µM
Sequence of ALK tyrosine kinase receptor (Homo sapiens), Q9UM73 [L1196M] (Q9UM73 whole entry L1196M, looked up): as the sequence (Q9UM73 whole entry C1156Y, looked up) above, with Y1156C, L1196M counted along it

[7] = target: ALK tyrosine kinase receptor (Homo sapiens, UniProt Q9UM73); test: as §1; details: at 1 µM
[8] = target: Casein kinase I isoform gamma-1 (Homo sapiens) (UniProt Q9HCP0); test: Selectivity interaction (KinomeScan (DiscoverX)) EUB0001049a CSNK1G1; details: at 1 µM
[9] = target: Vascular endothelial growth factor receptor 1 (Homo sapiens) (UniProt P17948); test: Selectivity interaction (KinomeScan (DiscoverX)) EUB0001619a FLT1; details: at 1 µM
Sequence of Vascular endothelial growth factor receptor 1 (Homo sapiens) (P17948 whole entry): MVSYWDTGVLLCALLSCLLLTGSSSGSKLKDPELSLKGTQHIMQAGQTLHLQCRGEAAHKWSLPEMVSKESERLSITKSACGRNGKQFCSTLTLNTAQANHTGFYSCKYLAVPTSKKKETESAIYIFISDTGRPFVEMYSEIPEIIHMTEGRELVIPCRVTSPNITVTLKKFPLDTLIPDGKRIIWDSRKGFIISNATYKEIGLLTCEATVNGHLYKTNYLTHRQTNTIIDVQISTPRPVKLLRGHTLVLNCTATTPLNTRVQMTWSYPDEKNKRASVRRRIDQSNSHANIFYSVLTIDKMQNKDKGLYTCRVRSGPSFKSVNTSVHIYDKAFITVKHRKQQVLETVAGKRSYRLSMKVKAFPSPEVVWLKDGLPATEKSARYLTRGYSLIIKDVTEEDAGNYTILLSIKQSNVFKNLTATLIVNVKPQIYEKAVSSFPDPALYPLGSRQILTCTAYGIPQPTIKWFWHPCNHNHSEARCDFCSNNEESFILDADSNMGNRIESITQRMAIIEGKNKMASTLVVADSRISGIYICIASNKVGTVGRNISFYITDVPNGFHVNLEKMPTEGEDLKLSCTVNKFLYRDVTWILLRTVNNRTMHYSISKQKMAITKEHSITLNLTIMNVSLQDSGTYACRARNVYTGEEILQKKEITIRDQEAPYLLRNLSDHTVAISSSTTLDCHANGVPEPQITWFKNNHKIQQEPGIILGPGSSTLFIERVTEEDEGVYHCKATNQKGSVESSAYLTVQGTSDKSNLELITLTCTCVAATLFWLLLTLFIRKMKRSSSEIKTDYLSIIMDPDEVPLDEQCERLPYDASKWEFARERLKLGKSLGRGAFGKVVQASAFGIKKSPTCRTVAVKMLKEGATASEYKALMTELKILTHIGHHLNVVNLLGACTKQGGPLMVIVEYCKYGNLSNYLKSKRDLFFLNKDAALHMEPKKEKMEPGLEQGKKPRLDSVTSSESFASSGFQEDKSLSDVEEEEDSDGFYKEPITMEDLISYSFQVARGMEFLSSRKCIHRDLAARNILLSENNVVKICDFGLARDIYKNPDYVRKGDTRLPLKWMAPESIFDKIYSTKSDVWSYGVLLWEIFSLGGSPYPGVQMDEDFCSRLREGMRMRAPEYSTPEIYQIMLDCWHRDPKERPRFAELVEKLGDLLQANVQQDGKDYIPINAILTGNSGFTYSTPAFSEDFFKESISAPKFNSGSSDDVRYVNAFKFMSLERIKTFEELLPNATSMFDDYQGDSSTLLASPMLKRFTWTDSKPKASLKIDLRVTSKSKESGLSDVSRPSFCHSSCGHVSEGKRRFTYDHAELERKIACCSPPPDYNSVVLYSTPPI

[10] = target: T3, Aurora kinase A (Homo sapiens) (UniProt O14965); test: Selectivity interaction (Kinase panel (literature)) EUB0001199aCl STK6; details: at 1 µM
T3 sequence (whole entry): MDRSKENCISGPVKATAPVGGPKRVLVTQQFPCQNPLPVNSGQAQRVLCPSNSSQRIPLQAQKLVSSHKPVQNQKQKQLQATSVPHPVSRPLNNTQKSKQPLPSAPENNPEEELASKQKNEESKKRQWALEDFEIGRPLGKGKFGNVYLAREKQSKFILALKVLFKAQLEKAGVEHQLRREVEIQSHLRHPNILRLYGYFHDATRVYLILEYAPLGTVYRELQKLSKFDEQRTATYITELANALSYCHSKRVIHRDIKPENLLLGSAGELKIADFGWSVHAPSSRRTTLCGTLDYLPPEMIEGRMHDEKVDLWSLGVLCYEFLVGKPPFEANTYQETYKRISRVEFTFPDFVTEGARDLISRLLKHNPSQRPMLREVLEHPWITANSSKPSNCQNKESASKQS

[11] = target: Vascular endothelial growth factor receptor 2 (Homo sapiens, UniProt P35968); test: Selectivity interaction (KinomeScan (DiscoverX)) EUB0000699a KDR; details: at 10 µM
Sequence of Vascular endothelial growth factor receptor 2 (P35968 whole entry): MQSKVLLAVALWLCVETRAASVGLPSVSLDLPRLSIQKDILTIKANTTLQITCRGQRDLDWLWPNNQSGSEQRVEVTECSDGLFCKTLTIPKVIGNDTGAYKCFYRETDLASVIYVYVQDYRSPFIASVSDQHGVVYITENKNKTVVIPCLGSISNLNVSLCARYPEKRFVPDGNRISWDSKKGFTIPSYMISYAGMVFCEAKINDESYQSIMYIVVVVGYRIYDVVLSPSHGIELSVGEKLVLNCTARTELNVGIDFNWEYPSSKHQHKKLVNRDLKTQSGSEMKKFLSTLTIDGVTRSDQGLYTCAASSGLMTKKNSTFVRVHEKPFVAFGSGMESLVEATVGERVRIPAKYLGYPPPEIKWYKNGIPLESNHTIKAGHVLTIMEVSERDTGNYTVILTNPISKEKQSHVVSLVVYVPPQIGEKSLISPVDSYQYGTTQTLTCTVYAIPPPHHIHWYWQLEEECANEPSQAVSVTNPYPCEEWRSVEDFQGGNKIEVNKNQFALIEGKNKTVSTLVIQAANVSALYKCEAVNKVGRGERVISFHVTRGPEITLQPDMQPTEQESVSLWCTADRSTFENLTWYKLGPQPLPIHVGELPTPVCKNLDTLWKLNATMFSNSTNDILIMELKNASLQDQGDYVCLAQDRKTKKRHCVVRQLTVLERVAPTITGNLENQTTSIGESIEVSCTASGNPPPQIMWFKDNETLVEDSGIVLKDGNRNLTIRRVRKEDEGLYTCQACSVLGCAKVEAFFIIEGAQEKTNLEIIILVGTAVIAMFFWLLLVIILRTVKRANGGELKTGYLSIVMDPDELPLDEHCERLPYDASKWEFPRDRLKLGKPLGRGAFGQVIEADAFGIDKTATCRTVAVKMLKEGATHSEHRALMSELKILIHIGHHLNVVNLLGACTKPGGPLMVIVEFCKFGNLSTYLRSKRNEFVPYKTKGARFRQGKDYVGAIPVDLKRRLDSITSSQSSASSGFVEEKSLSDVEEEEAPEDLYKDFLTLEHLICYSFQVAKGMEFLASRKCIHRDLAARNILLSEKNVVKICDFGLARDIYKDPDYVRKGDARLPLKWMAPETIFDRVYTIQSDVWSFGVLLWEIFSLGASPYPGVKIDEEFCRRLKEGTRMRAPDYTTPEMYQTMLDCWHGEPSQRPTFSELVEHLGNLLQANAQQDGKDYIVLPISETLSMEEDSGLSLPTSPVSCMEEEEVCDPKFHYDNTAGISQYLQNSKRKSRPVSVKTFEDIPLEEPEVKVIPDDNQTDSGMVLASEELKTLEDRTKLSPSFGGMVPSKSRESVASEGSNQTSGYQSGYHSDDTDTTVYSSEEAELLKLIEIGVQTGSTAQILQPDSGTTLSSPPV

[12] = target: T4, Dual specificity mitogen-activated protein kinase kinase 7 (Homo sapiens) (UniProt O14733); test: Selectivity interaction (KinomeScan (DiscoverX)) EUB0000092b MAP2K7; details: at 10 µM
T4 sequence (whole entry): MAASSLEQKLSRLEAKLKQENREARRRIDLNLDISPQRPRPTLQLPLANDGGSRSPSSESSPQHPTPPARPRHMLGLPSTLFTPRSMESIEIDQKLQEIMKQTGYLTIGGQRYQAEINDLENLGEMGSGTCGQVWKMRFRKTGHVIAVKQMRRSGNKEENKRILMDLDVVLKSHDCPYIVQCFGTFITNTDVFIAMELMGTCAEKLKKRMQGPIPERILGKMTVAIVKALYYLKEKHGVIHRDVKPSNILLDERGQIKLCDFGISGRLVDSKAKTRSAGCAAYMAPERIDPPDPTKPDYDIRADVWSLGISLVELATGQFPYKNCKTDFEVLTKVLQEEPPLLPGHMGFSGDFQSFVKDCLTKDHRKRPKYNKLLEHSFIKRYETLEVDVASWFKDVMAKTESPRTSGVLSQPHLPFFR

`Cc1cc(F)c(C(=O)Nc2cccc(-c3nncn3C(C)C)n2)cc1-n1cnc(C2CC2)c1` was tested, and the % of control [1] was 100%.

Compound `Nc1cnc(N2CCc3cc(S(=O)(=O)Nc4c(F)cc(Cl)cc4F)cc(N4CCCC4=O)c32)nc1` [TP-020n] has a % of control [2] of 76%.

With `Cn1cc(-n2cnc3c(NCc4nc5cc(Cl)c(Cl)cc5[nH]4)nc(N4CCOCC4)nc32)cn1` the % of control [3] was 5.35%.

Work on `CC(=O)c1cc(-c2ccccc2OCC2CC2)c2ncccn12` yielded a % of control [4] of 35%.

In the case of `COc1cc(Nc2nc(C)cc(-c3cnn4nc(OC)ccc34)n2)cc(C(F)(F)F)c1`, the % of control [5] is reported as 89%, the % of control [6] is reported as 100% and the % of control [7] is reported as 94%. For the same compound, the % of control [8] was 100%.

`N#Cc1cccc(-c2c[nH]c3ncnc(N4CCOCC4)c23)c1` gave a % of control [9] of 73%.

`CN1Cc2nccc(-c3cn(C)nc3-c3ccc(F)cc3)c2C1=O` gave a % of inhibition [10] of -4%.

`CCN(CC)CCCCNc1ncc2cc(-c3cc(OC)cc(OC)c3)c(NC(=O)NC(C)(C)C)nc2n1` showed a % of control [11] of 21%.

`CCC(=O)N1CCN(c2ccc(-n3c(=O)ccc4cnc5ccc(-c6cnc7ccccc7c6)cc5c43)cc2C(F)(F)F)CC1` showed a % of control [12] of 100%.
